From patent US12059486B2, “Cosmetic compositions” (Rodan & Fields, LLC, priority 2021, dated 2024) come the findings set out here.

In assay [1] the test system is human epidermal melanocytes. As to the kind of experiment: Melanin content in human epidermal melanocytes. Format: cell-based. The following applies: 7 days. The protocol: Test materials were added to exponentially growing cultures and the experiment was terminated 7 days later.
Assay [2] can be described thus: Free radical scavenging activity (ABTS). Format: biochemical. The following applies: 0.06 mg/mL; expressed as % water control. The protocol: Free radical scavenging activity was tested of different experimental conditions expressed as % water control. The positive control, ascorbic acid (Ref. 5), reached the expected level of inhibitory activity technically validating the experiments.

The test system of assay [3] is decorin. As to the kind of experiment: Output of ECM components in adult human dermal fibroblast culture model (Method E): decorin. It counts as cell-based. The settings on record: 10 ng/mL; day 7; corrected for cell numbers, % of water control. The protocol:
(§1) Method E: Metabolism, Proliferation and Output of ECM Components in the Adult Human Dermal Fibroblast Culture Model. Test materials were dissolved in sterile cell culture medium at ×2 highest concentration tested and samples were added in triplicates to exponentially growing adult human dermal fibroblasts (aHDF; 7,000 cells/well of a 96 well plate; p.7 Cell Applications, San Diego, CA, cat. #106-05a; lot #3014). Cultures were maintained in DMEM/10% FBS. At the end of the experiments (day 7), macromolecules of interest were quantified either in the cell culture medium (decorin, type I collagen, type III collagen and hyaluronate) or on fixed cells (total insoluble proteins and elastin), by ELISA and sulforhodamine B, as indicated in Tables II-IV. Total insoluble (cytoskeletal) proteins were quantified to determine the effect of test materials on cell proliferation (cell numbers or cell #) according to the method described by Voigt et al., 2005. These values were also used to standardize decorin, type I collagen, type III collagen, elastin and hyaluronate output data to cell numbers, using the Equation 1: (Standardized Cell #)=[macromolecule of interest raw read out value]/cell number raw read out value] […]
(§2) This standardization was performed separately for each well. […] All colorimetric measurements were performed using Molecular Devices microplate reader MAX190 and SoftMax3.1.2PRO software. […]

Assay [4] deals with soluble decorin. As to the kind of experiment: Soluble decorin in adult human dermal fibroblasts (Method F). Format: cell-based. The settings on record: 10 ng/mL; day 7; standardized to cell numbers, % of water control. The method, then: (§3) Method F: Test materials were dissolved in sterile cell culture medium at x2 highest concentration tested and samples were added in triplicates to exponentially growing adult human dermal fibroblasts (7,000 cells/well of a 96 well plate; p.7 Cell Applications, San Diego, CA, cat. #106-05a; lot #3014). Cultures were maintained in DMEM/10%FBS. At the end of the experiment (day 7), decorin was quantified in the cell culture medium (soluble fraction) and on fixed cells (insoluble fraction) by ELISA. Total insoluble (cytoskeletal) proteins were quantified to determine the effect of test materials on cell proliferation (cell numbers or cell #) according to the method described by Voigt et al., 2005. These values were also used to standardize decorin output data to cell numbers, using Equation 1. This standardization was performed separately for each well. Each experimental condition and control was assayed at least in triplicates. The effect of test materials on mitochondrial metabolism was measured with the MTT assay, which measures the activity of mitochondrial dehydrogenases, such as succinate dehydrogenase, implicated in the respiratory electron transport chain in mitochondria (Berridge & Tan; 1993).

For assay [5], the system named is Type I Collagen. In words: Output of ECM components in adult human dermal fibroblast culture model (Method E): type I collagen. It counts as cell-based. The following applies: 10 ng/mL; day 7; corrected for cell numbers, % of water control. The method, then:
as §1, §2

Assay [6] deals with Type III collagen. In words: Output of ECM components in adult human dermal fibroblast culture model (Method E): type III collagen. Format: cell-based. The following applies: 10 ng/mL; day 7; corrected for cell numbers, % of water control. The protocol:
as §1, §2

For assay [7], the system named is insoluble decorin. In words: Insoluble decorin in adult human dermal fibroblasts (Method F). It counts as cell-based. The following applies: 10 ng/mL; day 7; standardized to cell numbers, % of water control. The protocol:
as §3

Assay [8] concerns elastin. In words: Output of ECM components in adult human dermal fibroblast culture model (Method E): elastin. Format: cell-based. The settings on record: 10 ng/mL; day 7; fixed cells; corrected for cell numbers, % of water control. The method, then: as §1, §2
Assay [9] concerns hyaluronate. In words: Output of ECM components in adult human dermal fibroblast culture model (Method E): hyaluronate. Format: cell-based. The settings on record: 10 ng/mL; day 7; corrected for cell numbers, % of water control. The protocol:
as §1, §2

Regarding `O=c1cc(CO)occ1O` [Ref. 4, Kojic acid], the figures for the Melanin cell number-adjusted in assay [1] (50 ug/mL) and in [1] (200 ug/mL) were 103 % Control and 46 % Control, respectively.

On to `O=C1O[C@H]([C@@H](O)CO)C(O)=C1O` [Ref. 5, ascorbic acid], for which the ABTS in assay [2] stood at 0 % Control.

For basic fibroblast growth factor [bFGF], in assay [3], the decorin was determined as 57 % CTR. For the same compound, the Soluble decorin in assay [4] is 67 % CTR. Moreover, the “Type I Collagen” value in assay [5] was determined as 67 % CTR. Further, in assay [6], the “Type III collagen” value is 87 % CTR. Moreover, in assay [7], the Insoluble decorin was determined as 87 % CTR. This compound also gave an elastin in assay [8] of 62 % CTR. The same compound showed a Hyaluronian in assay [9] of 72 % CTR.
